According to patent US9944602B2, “Piperidinone herbicides” (E. I. DU PONT DE NEMOURS AND COMPANY, priority 2014, dated 2018):

Key:
Assay type in all cases: in vivo
[1] = test system: kochia (Kochia scoparia); assay: Test A preemergence kochia; conditions: 0 to 100 scale, 0 no effect, 100 complete control
Description: (§1) Seeds of plant species selected from barnyardgrass (Echinochloa crus-galli), kochia (Kochia scoparia), ragweed (common ragweed, Ambrosia elatior), ryegrass, Italian (Italian ryegrass, Lolium multiflorum), crabgrass, large (large crabgrass, Digitaria sanguinalis), foxtail, giant (giant foxtail, Setaria faberii), morningglory (Ipomoea spp.), pigweed (Amaranthus retroflexus), velvetleaf (Abutilon theophrasti), wheat (Triticum aestivum), and corn (Zea mays) were planted into a blend of loam soil and sand and treated preemergence with a directed soil spray using test chemicals formulated in a non-phytotoxic solvent mixture which included a surfactant.
(§2) At the same time, plants selected from these crop and weed species and also blackgrass (Alopecurus myosuroides), and galium (catchweed bedstraw, Galium aparine) were planted in pots containing the same blend of loam soil and sand and treated with postemergence applications of test chemicals formulated in the same manner. Plants ranged in height from 2 to 10 cm and were in the one- to two-leaf stage for the postemergence treatment. Treated plants and untreated controls were maintained in a greenhouse for approximately 10 d, after which time all treated plants were compared to untreated controls and visually evaluated for injury. Plant response ratings, summarized in Table A, are based on a 0 to 100 scale where 0 is no effect and 100 is complete control. A dash (-) response means no test result.

[2] = test system: pigweed (Amaranthus retroflexus); assay: Test A postemergence pigweed; conditions: 0 to 100 scale, 0 is no effect, 100 is complete control
Description: as §1, §2

[3] = test system: corn (Zea mays); assay: Test A postemergence corn; conditions: 0 to 100 scale, 0 is no effect, 100 is complete control
Description: as §1, §2

[4] = test system: sedge, umbrella (small-flower umbrella sedge, Cyperus difformis); assay: Test B flooded paddy test sedge, umbrella; conditions: Table B, Flood, scale 0 to 100
Experimental: (§3) Plant species in the flooded paddy test selected from rice (Oryza sativa), sedge, umbrella (small-flower umbrella sedge, Cyperus difformis), ducksalad (Heteranthera limosa), and barnyardgrass (Echinochloa crus-galli) were grown to the 2-leaf stage for testing. At the time of treatment, test pots were flooded to 3 cm above the soil surface, treated by application of test compounds directly to the paddy water, and then maintained at that water depth for the duration of the test. Treated plants and controls were maintained in a greenhouse for 13 to 15 d, after which time all species were compared to controls and visually evaluated. […] A dash (-) response means no test result.

[5] = test system: barnyardgrass (Echinochloa crus-galli); assay: Test A preemergence barnyardgrass; conditions: 0 to 100 scale; for Barnyardgrass plant response rating: 0 no effect, 100 complete control
Description: as §1, §2

[6] = test system: ryegrass, Italian (Italian ryegrass, Lolium multiflorum); assay: Test A preemergence ryegrass, Italian; conditions: 0 to 100 scale, 0 no effect, 100 complete control
Description: as §1, §2

[7] = test system: ducksalad (Heteranthera limosa); assay: Test B flooded paddy test ducksalad; conditions: Table B, Flood, scale 0 to 100
Experimental: as §3

[8] = test system: ryegrass, Italian (Italian ryegrass, Lolium multiflorum); assay: Test A postemergence ryegrass, Italian; conditions: 0 to 100 scale, 0 is no effect, 100 is complete control
Description: as §1, §2

[9] = test system: ragweed (common ragweed, Ambrosia elatior); assay: Test A preemergence ragweed; conditions: 0 to 100 scale, 0 no effect, 100 complete control
Description: as §1, §2

[10] = test system: ragweed (common ragweed, Ambrosia elatior); assay: Test A postemergence ragweed; conditions: 0 to 100 scale, 0 is no effect, 100 is complete control
Description: as §1, §2

[11] = test system: blackgrass (Alopecurus myosuroides); assay: Test A postemergence blackgrass; conditions: 0 to 100 scale, 0 is no effect, 100 is complete control
Description: as §1, §2

[12] = test system: galium (catchweed bedstraw, Galium aparine); assay: Test A postemergence galium; conditions: 0 to 100 scale, 0 is no effect, 100 is complete control
Description: as §1, §2

[13] = test system: barnyardgrass (Echinochloa crus-galli); assay: Test A postemergence barnyardgrass; conditions: 0 to 100 scale, 0 is no effect, 100 is complete control
Description: as §1, §2

[14] = test system: kochia (Kochia scoparia); assay: Test A postemergence kochia; conditions: 0 to 100 scale, 0 is no effect, 100 is complete control
Description: as §1, §2

[15] = test system: foxtail, giant (giant foxtail, Setaria faberii); assay: Test A preemergence foxtail, giant; conditions: 0 to 100 scale, 0 no effect, 100 complete control
Description: as §1, §2

[16] = test system: wheat (Triticum aestivum); assay: Test A postemergence wheat; conditions: 0 to 100 scale, 0 is no effect, 100 is complete control
Description: as §1, §2

[17] = test system: pigweed (Amaranthus retroflexus); assay: Test A preemergence pigweed; conditions: 0 to 100 scale, 0 no effect, 100 complete control
Description: as §1, §2

[18] = test system: rice (Oryza sativa); assay: Test B flooded paddy test rice; conditions: Table B, Flood, scale 0 to 100
Experimental: as §3

[19] = test system: foxtail, giant (giant foxtail, Setaria faberii); assay: Test A postemergence foxtail, giant; conditions: 0 to 100 scale, 0 is no effect, 100 is complete control
Description: as §1, §2

[20] = test system: barnyardgrass (Echinochloa crus-galli); assay: Test B flooded paddy test barnyardgrass; conditions: Table B, Flood, scale 0 to 100
Experimental: as §3

| Compound | Kochia plant response rating ([1]; 125 g ai/ha) | Kochia plant response rating ([1]; 500 g ai/ha) | Plant response rating, Pigweed ([2]; 125 g ai/ha) | Plant response rating, Pigweed ([2]; 500 g ai/ha) | Plant response rating, Corn ([3]; 125 g ai/ha) | Plant response rating, Corn ([3]; 500 g ai/ha) | Barnyardgrass plant response rating ([5]; 125 g ai/ha) | Ryegrass, Italian plant response rating ([6]; 125 g ai/ha) | Ryegrass, Italian plant response rating ([6]; 500 g ai/ha) | Plant response rating, Ryegrass, Italian ([8]; 125 g ai/ha) | Plant response rating, Ryegrass, Italian ([8]; 500 g ai/ha) | Ragweed plant response rating ([9]; 125 g ai/ha) | Ragweed plant response rating ([9]; 500 g ai/ha) | Plant response rating, Ragweed ([10]; 125 g ai/ha) | Plant response rating, Ragweed ([10]; 500 g ai/ha) | Plant response rating, Blackgrass ([11]; 125 g ai/ha) | Plant response rating, Blackgrass ([11]; 500 g ai/ha) | Plant response rating, Galium ([12]; 125 g ai/ha) | Plant response rating, Galium ([12]; 500 g ai/ha) | Plant response rating, Barnyardgrass ([13]; 125 g ai/ha) | also measured |
| --- | --- | --- | --- | --- | --- | --- | --- | --- | --- | --- | --- | --- | --- | --- | --- | --- | --- | --- | --- | --- | --- |
| O=C1NCC[C@@H](c2cccc(C(F)(F)F)c2)[C@@H]1C(=O)Nc1cccc(F)c1F [Compound 20] | 0 | 0 | 0 | 0 | 0 | 20 | 50 | 0 | 0 | 0 | 20 | 0 | 0 | 0 | 0 | 0 | 20 | 0 | 0 | 40 | Plant response rating ([4]; 250 g ai/ha): 0; Barnyardgrass plant response rating ([5]; 500 g ai/ha): 90; Plant response rating ([7]; 250 g ai/ha): 0; Plant response rating, Barnyardgrass ([13]; 500 g ai/ha): 80; Plant response rating, Kochia ([14]; 125 g ai/ha): 0; Plant response rating, Kochia ([14]; 500 g ai/ha): 0; Foxtail, Giant plant response rating ([15]; 125 g ai/ha): 60; Foxtail, Giant plant response rating ([15]; 500 g ai/ha): 90; Plant response rating, Wheat ([16]; 125 g ai/ha): 0; Plant response rating, Wheat ([16]; 500 g ai/ha): 0; Pigweed plant response rating ([17]; 125 g ai/ha): 0; Pigweed plant response rating ([17]; 500 g ai/ha): 0; Plant response rating ([18]; 250 g ai/ha): 0; Plant response rating, Foxtail, Giant ([19]; 125 g ai/ha): 40; Plant response rating, Foxtail, Giant ([19]; 500 g ai/ha): 80; Plant response rating ([20]; 250 g ai/ha): 0 |
| O=C1NCCC(c2cccc(C(F)F)c2)C1C(=O)Nc1ccc(F)c(F)c1F (stereo not drawn) [Compound 47] | 0 | 0 | 0 | 0 | 0 | 0 | 70 | 0 | 40 | 0 | 20 | 0 | 0 | 0 | 0 | 0 | 0 | 0 | 0 | 50 | Plant response rating ([4]; 250 g ai/ha): 0; Barnyardgrass plant response rating ([5]; 500 g ai/ha): 90; Plant response rating ([7]; 250 g ai/ha): 50; Plant response rating, Barnyardgrass ([13]; 500 g ai/ha): 90; Plant response rating, Kochia ([14]; 125 g ai/ha): 0; Plant response rating, Kochia ([14]; 500 g ai/ha): 0; Foxtail, Giant plant response rating ([15]; 125 g ai/ha): 80; Foxtail, Giant plant response rating ([15]; 500 g ai/ha): 90; Plant response rating, Wheat ([16]; 125 g ai/ha): 0; Plant response rating, Wheat ([16]; 500 g ai/ha): 30; Pigweed plant response rating ([17]; 125 g ai/ha): 0; Pigweed plant response rating ([17]; 500 g ai/ha): 0; Plant response rating ([18]; 250 g ai/ha): 0; Plant response rating, Foxtail, Giant ([19]; 125 g ai/ha): 70; Plant response rating, Foxtail, Giant ([19]; 500 g ai/ha): 80; Plant response rating ([20]; 250 g ai/ha): 0 |
| O=C1NCCC(c2ccccc2C(F)(F)F)C1C(=O)Nc1ccccc1C(F)(F)F (racemic) [Compound 7] | 0 | 0 | 0 | 0 | 0 | 0 | 0 | 0 | 0 | 0 | 0 | 0 | 0 | 0 | 0 | 0 | 0 | 0 | 0 | 0 | Plant response rating ([4]; 1000 g ai/ha): 0; Plant response rating, Barnyardgrass ([5]; 500 g ai/ha, 0 is no effect, 100 is complete control): 0; Plant response rating ([7]; 1000 g ai/ha): 0; Plant response rating, Barnyardgrass ([13]; 500 g ai/ha): 0; Plant response rating, Kochia ([14]; 125 g ai/ha): 0; Plant response rating, Kochia ([14]; 500 g ai/ha): 0; Foxtail, Giant plant response rating ([15]; 125 g ai/ha): 0; Foxtail, Giant plant response rating ([15]; 500 g ai/ha): 0; Plant response rating, Wheat ([16]; 125 g ai/ha): 0; Plant response rating, Wheat ([16]; 500 g ai/ha): 0; Pigweed plant response rating ([17]; 125 g ai/ha): 0; Pigweed plant response rating ([17]; 500 g ai/ha): 0; Plant response rating ([18]; 1000 g ai/ha): 0; Plant response rating, Foxtail, Giant ([19]; 125 g ai/ha): 0; Plant response rating, Foxtail, Giant ([19]; 500 g ai/ha): 0; Plant response rating ([20]; 1000 g ai/ha): 0 |
